Source: US9340590B2 (priority 2011, dated 2016)
Positions of bridges follow the written chain, without caps; N, C: chain ends. Non-standard residues stand in square brackets, D forms with d. Residues, ends and D or L forms follow the SMILES beside them. Phe(3,4-(OMe)2) = COc1ccc(C[C@H](N)C(=O)O)cc1OC; hArg = N=C(N)NCCCC[C@H](N)C(=O)O

Tests used:
hNav1.5 = hNav1.5 (Homo sapiens, UniProt Q14524); experiment: cell-based
hNav1.7 = hNav1.7 (Homo sapiens, UniProt Q15858); experiment: cell-based; details: Nav1.7 Use IC50
hNav1.7, sequence (Q15858 whole entry, looked up): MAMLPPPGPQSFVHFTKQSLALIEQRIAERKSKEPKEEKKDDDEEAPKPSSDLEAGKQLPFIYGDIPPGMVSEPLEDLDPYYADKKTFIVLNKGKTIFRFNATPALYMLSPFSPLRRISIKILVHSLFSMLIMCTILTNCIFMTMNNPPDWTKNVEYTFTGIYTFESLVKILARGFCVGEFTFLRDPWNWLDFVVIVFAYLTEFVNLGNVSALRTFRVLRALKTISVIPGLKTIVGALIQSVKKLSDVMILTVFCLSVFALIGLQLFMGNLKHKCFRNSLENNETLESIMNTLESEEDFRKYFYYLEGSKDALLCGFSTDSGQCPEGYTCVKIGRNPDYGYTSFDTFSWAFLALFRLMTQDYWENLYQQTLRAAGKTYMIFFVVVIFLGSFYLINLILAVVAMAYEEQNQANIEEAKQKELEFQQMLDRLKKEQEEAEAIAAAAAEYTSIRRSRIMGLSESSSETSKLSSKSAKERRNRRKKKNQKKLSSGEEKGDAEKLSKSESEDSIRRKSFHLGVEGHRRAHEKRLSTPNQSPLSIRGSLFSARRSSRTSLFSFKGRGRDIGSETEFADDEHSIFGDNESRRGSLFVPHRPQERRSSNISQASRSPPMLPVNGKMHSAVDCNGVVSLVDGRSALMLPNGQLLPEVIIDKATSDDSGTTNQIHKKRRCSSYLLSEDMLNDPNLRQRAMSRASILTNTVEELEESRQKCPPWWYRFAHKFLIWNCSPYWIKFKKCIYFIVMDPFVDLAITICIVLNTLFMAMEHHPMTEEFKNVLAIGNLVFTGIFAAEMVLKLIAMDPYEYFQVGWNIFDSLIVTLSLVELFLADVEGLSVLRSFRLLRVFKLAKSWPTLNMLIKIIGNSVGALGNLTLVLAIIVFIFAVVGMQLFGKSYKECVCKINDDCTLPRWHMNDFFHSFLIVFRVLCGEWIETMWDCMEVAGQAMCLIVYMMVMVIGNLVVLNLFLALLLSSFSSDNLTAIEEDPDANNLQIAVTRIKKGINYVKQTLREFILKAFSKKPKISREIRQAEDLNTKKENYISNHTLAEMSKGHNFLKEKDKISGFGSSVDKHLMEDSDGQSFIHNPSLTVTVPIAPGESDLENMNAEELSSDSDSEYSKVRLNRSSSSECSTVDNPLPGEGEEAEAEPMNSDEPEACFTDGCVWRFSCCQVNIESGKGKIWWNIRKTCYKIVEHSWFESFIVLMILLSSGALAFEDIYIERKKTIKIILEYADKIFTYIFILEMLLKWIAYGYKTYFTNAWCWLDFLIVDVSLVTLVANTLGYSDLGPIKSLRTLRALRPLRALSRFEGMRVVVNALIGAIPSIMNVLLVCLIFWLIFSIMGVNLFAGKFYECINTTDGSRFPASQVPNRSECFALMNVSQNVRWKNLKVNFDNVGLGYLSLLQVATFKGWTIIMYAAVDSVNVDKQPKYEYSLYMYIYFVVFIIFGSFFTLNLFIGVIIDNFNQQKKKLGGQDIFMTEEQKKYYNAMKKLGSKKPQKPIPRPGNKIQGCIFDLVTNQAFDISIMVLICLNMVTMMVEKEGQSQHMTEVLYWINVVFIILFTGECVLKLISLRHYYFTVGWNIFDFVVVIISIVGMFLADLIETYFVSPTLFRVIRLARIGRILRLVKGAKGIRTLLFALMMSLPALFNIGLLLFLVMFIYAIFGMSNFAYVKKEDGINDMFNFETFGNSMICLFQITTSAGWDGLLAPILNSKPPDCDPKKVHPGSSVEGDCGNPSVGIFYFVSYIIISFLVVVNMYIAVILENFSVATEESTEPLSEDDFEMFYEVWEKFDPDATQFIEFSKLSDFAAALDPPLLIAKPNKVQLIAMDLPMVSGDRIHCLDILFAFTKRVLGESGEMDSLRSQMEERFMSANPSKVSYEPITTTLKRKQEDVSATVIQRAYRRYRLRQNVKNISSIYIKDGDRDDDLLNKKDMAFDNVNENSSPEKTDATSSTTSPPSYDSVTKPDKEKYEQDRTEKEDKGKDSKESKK

hNav1.5, sequence (Q14524 whole entry, looked up): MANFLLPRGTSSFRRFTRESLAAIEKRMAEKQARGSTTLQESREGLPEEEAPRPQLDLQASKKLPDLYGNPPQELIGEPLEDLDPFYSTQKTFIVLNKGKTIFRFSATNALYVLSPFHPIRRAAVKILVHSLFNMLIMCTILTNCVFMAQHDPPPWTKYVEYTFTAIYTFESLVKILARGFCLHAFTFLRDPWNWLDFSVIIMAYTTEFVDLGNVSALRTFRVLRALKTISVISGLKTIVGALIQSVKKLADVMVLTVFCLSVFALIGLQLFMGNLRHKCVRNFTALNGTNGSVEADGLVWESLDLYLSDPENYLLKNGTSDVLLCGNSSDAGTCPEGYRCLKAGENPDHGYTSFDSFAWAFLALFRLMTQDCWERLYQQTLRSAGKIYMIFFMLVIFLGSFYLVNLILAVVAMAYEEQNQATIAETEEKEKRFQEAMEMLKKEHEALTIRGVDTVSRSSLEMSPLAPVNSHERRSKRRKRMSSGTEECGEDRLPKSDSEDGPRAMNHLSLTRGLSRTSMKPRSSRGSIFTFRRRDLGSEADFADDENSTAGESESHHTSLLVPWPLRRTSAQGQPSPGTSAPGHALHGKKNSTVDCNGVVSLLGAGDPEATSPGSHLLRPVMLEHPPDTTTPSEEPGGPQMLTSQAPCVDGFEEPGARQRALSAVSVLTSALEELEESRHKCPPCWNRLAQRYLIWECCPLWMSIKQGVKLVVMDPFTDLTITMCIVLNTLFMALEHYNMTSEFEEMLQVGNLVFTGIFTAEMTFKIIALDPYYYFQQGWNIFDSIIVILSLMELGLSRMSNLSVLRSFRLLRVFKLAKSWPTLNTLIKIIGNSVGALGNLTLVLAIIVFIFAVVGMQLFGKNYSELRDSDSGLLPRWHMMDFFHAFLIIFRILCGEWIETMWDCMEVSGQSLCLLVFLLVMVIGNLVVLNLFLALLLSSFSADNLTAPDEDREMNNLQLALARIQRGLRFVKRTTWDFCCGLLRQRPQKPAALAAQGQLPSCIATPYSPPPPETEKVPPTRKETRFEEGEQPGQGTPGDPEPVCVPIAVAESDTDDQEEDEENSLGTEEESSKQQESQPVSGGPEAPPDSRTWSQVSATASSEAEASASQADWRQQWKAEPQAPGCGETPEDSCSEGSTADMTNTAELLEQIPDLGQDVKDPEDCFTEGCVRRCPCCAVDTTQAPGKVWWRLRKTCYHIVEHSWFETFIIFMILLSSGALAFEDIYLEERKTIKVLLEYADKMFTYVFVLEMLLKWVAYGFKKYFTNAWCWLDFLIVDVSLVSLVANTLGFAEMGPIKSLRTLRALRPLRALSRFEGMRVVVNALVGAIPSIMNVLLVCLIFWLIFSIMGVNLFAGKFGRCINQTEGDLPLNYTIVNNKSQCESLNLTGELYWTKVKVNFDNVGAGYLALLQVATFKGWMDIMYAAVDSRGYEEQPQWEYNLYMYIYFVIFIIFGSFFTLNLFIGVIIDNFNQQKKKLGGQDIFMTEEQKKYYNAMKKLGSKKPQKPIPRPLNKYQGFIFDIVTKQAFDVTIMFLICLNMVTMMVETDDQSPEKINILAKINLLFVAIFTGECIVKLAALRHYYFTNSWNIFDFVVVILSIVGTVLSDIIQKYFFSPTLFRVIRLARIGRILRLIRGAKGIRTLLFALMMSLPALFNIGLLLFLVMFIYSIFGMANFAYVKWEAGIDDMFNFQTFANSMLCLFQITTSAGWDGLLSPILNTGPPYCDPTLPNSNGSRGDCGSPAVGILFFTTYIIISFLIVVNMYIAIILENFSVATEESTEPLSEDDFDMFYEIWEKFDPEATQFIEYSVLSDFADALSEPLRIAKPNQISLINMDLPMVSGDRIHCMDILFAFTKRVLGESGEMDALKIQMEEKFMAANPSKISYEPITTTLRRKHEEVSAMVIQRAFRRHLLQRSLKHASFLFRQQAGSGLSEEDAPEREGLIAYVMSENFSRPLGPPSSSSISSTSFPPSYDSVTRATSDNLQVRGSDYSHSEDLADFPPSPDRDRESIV

Row | Compound | IC50 (hNav1.5) [nM] | IC50 (hNav1.7) [nM]
1 | CC[C@H](C)[C@@H]1NC(=O)[C@@H]2CSSC[C@@H]3NC(=O)[C@H](C(C)C)NC(=O)[C@H](CC(C)C)NC(=O)[C@H](CC(N)=O)NC(=O)[C@@H]4CCCN4C(=O)[C@H](CCCNC(=N)N)NC(=O)[C@H](CSSC[C@H](NC(=O)[C@@H](N)CC(=O)O)C(=O)N[C@@H](CC(C)C)C(=O)NCC(=O)N[C@@H](C)C(=O)N[C@@H](CCSC)C(=O)N[C@@H](CCCNC(=N)N)C(=O)N[C@@H](CCCCN)C(=O)N2)NC(=O)[C@H](CSSC[C@@H](C(=O)N[C@@H](CCCCN)C(=O)N[C@@H](Cc2ccc(O)cc2)C(=O)N[C@H](C(=O)N[C@@H](Cc2ccccc2)C(N)=O)C(C)C)NC(=O)[C@H](Cc2c[nH]c4ccccc24)NC(=O)[C@H](CCCCNC(=N)N)NC(=O)[C@H](Cc2c[nH]cn2)NC(=O)[C@H]([C@@H](C)O)NC(=O)[C@H](CCCNC(=N)N)NC(=O)[C@H](CO)NC3=O)NC(=O)[C@H](CCCCN)NC(=O)[C@H](CC(=O)O)NC(=O)[C@H](CC(N)=O)NC(=O)[C@H](CC(=O)O)NC(=O)[C@@H]2CCCN2C1=O [[Ala5;hArg28]GpTx-1(1-34)] (H-DCLGAMRKCIPDNDKCCRPNLVCSRTH[hArg]WCKYVF-NH2; disulfide 2-17, 9-23, 16-30) | > 10000 | 14
2 | CC[C@H](C)[C@@H]1NC(=O)[C@@H]2CSSC[C@@H]3NC(=O)[C@H](C)NC(=O)[C@H](CC(C)C)NC(=O)[C@H](CC(N)=O)NC(=O)[C@@H]4CCCN4C(=O)[C@H](CCCNC(=N)N)NC(=O)[C@H](CSSC[C@H](NC(=O)[C@@H](N)CC(=O)O)C(=O)N[C@@H](CC(C)C)C(=O)NCC(=O)N[C@@H](Cc4ccccc4)C(=O)N[C@@H](CCSC)C(=O)N[C@@H](CCCNC(=N)N)C(=O)N[C@@H](CCCCN)C(=O)N2)NC(=O)[C@H](CSSC[C@@H](C(=O)N[C@@H](CCCCN)C(=O)N[C@@H](Cc2ccc(O)cc2)C(=O)N[C@H](C(=O)N[C@@H](Cc2ccccc2)C(N)=O)C(C)C)NC(=O)[C@H](Cc2c[nH]c4ccccc24)NC(=O)[C@H](CCCCN)NC(=O)[C@H](Cc2cnc[nH]2)NC(=O)[C@H]([C@@H](C)O)NC(=O)[C@H](CCCNC(=N)N)NC(=O)[C@H](CO)NC3=O)NC(=O)[C@H](CCCCN)NC(=O)[C@H](CC(=O)O)NC(=O)[C@H](CC(N)=O)NC(=O)[C@H](CC(=O)O)NC(=O)[C@@H]2CCCN2C1=O [[Ala22]GpTx-1(1-34)] (H-DCLGFMRKCIPDNDKCCRPNLACSRTHKWCKYVF-NH2; disulfide 2-17, 9-23, 16-30) | 6200 | 6
3 | CC[C@H](C)[C@@H]1NC(=O)[C@@H]2CSSC[C@@H]3NC(=O)[C@H](C(C)C)NC(=O)[C@H](CC(C)C)NC(=O)[C@H](CC(N)=O)NC(=O)[C@@H]4CCCN4C(=O)[C@H](CCCNC(=N)N)NC(=O)[C@H](CSSC[C@H](NC(=O)[C@@H](N)CC(=O)O)C(=O)N[C@@H](CC(C)C)C(=O)NCC(=O)N[C@@H](Cc4ccccc4)C(=O)N[C@@H](CCSC)C(=O)N[C@@H](CCCNC(=N)N)C(=O)N[C@@H](CCCCN)C(=O)N2)NC(=O)[C@H](CSSC[C@@H](C(=O)N[C@@H](CCCCN)C(=O)N[C@@H](Cc2ccc(O)cc2)C(=O)N[C@H](C(=O)N[C@@H](Cc2ccccc2)C(N)=O)C(C)C)NC(=O)[C@H](Cc2c[nH]c4ccccc24)NC(=O)[C@H](CCCCN)NC(=O)[C@H](Cc2cnc[nH]2)NC(=O)[C@H]([C@@H](C)O)NC(=O)[C@H](C)NC(=O)[C@H](CO)NC3=O)NC(=O)[C@H](CCCCN)NC(=O)[C@H](CC(=O)O)NC(=O)[C@H](CC(N)=O)NC(=O)[C@H](CC(=O)O)NC(=O)[C@@H]2CCCN2C1=O [[Ala25]GpTx-1(1-34)] (H-DCLGFMRKCIPDNDKCCRPNLVCSATHKWCKYVF-NH2; disulfide 2-17, 9-23, 16-30) | 10000 | 12
4 | CC[C@H](C)[C@@H]1NC(=O)[C@@H]2CSSC[C@@H]3NC(=O)[C@H](C(C)C)NC(=O)[C@H](CC(C)C)NC(=O)[C@H](CC(N)=O)NC(=O)[C@@H]4CCCN4C(=O)[C@H](CCCNC(=N)N)NC(=O)[C@H](CSSC[C@H](NC(=O)[C@@H](N)CC(=O)O)C(=O)N[C@@H](CC(C)C)C(=O)N[C@@H](CCCNC(=N)N)C(=O)N[C@@H](CCSC)C(=O)N[C@@H](CCSC)C(=O)N[C@@H](CCCNC(=N)N)C(=O)N[C@@H](CCCCN)C(=O)N2)NC(=O)[C@H](CSSC[C@@H](C(=O)N[C@@H](CCCCN)C(=O)N[C@@H](Cc2ccc(O)cc2)C(=O)N[C@H](C(=O)N[C@@H](Cc2ccccc2)C(N)=O)C(C)C)NC(=O)[C@H](Cc2c[nH]c4ccccc24)NC(=O)[C@H](CCCCN)NC(=O)[C@H](Cc2c[nH]cn2)NC(=O)[C@H]([C@@H](C)O)NC(=O)[C@H](CCCNC(=N)N)NC(=O)[C@H](CO)NC3=O)NC(=O)[C@H](CCCCN)NC(=O)[C@H](CC(=O)O)NC(=O)[C@H](CC(N)=O)NC(=O)[C@H](CC(=O)O)NC(=O)[C@@H]2CCCN2C1=O [[Arg4;Met5]GpTx-1(1-34)] (H-DCLRMMRKCIPDNDKCCRPNLVCSRTHKWCKYVF-NH2; disulfide 2-17, 9-23, 16-30) | 13200 | 29
5 | CC[C@H](C)[C@@H]1NC(=O)[C@@H]2CSSC[C@@H]3NC(=O)[C@H](C(C)C)NC(=O)[C@H](CC(C)C)NC(=O)[C@H](CC(N)=O)NC(=O)[C@@H]4CCCN4C(=O)[C@H](CCCNC(N)=O)NC(=O)[C@H](CSSC[C@H](NC(=O)[C@@H](N)CC(=O)O)C(=O)N[C@@H](CC(C)C)C(=O)NCC(=O)N[C@@H](Cc4ccccc4)C(=O)N[C@@H](CCSC)C(=O)N[C@@H](CCCNC(=N)N)C(=O)N[C@@H](CCCCN)C(=O)N2)NC(=O)[C@H](CSSC[C@@H](C(=O)N[C@@H](CCCCN)C(=O)N[C@@H](Cc2ccc(O)cc2)C(=O)N[C@H](C(=O)N[C@@H](Cc2ccccc2)C(N)=O)C(C)C)NC(=O)[C@H](Cc2c[nH]c4ccccc24)NC(=O)[C@H](CCCCN)NC(=O)[C@H](Cc2cnc[nH]2)NC(=O)[C@H]([C@@H](C)O)NC(=O)[C@H](CCCNC(=N)N)NC(=O)[C@H](CO)NC3=O)NC(=O)[C@H](CCCCN)NC(=O)[C@H](CC(=O)O)NC(=O)[C@H](CC(N)=O)NC(=O)[C@H](CC(=O)O)NC(=O)[C@@H]2CCCN2C1=O [[Cit18]GpTx-1(1-34)] | 10000 | 2
6 | CC[C@H](C)[C@@H]1NC(=O)[C@@H]2CSSC[C@@H]3NC(=O)[C@H](C(C)C)NC(=O)[C@H](CC(C)C)NC(=O)[C@H](CC(N)=O)NC(=O)[C@@H]4CCCN4C(=O)[C@H](CCCNC(=N)N)NC(=O)[C@H](CSSC[C@H](NC(=O)[C@@H](N)CC(=O)O)C(=O)N[C@@H](CC(C)C)C(=O)NCC(=O)N[C@@H](Cc4ccccc4)C(=O)N[C@@H](CCSC)C(=O)N[C@@H](CCCNC(=N)N)C(=O)N[C@@H](CCCCN)C(=O)N2)NC(=O)[C@H](CSSC[C@@H](C(=O)N[C@@H](CCCCN)C(=O)N[C@@H](Cc2ccc(O)cc2)C(=O)N[C@H](C(=O)N[C@@H](Cc2ccccc2)C(N)=O)C(C)C)NC(=O)[C@H](Cc2c[nH]c4ccccc24)NC(=O)[C@H](CCCCN)NC(=O)[C@H](Cc2c[nH]cn2)NC(=O)[C@H]([C@@H](C)O)NC(=O)[C@H](CCCNC(N)=O)NC(=O)[C@H](CO)NC3=O)NC(=O)[C@H](CCCCN)NC(=O)[C@H](CC(=O)O)NC(=O)[C@H](CC(N)=O)NC(=O)[C@H](CC(=O)O)NC(=O)[C@@H]2CCCN2C1=O [[Cit25]GpTx-1(1-34)] | > 10000 | 4
7 | CC[C@H](C)[C@@H]1NC(=O)[C@@H]2CSSC[C@@H]3NC(=O)[C@H](C(C)C)NC(=O)[C@H](CC(C)C)NC(=O)[C@H](CC(N)=O)NC(=O)[C@@H]4CCCN4C(=O)[C@H](CCCNC(=N)N)NC(=O)[C@H](CSSC[C@H](NC(=O)[C@@H](N)CC(=O)O)C(=O)N[C@@H](CC(C)C)C(=O)NCC(=O)N[C@@H](Cc4ccc(OC)c(OC)c4)C(=O)N[C@@H](Cc4ccccc4)C(=O)N[C@@H](CCCNC(=N)N)C(=O)N[C@@H](CCCCN)C(=O)N2)NC(=O)[C@H](CSSC[C@@H](C(=O)N[C@@H](CCCCN)C(=O)N[C@@H](Cc2ccc(O)cc2)C(=O)N[C@H](C(=O)N[C@@H](Cc2ccccc2)C(N)=O)C(C)C)NC(=O)[C@H](Cc2c[nH]c4ccccc24)NC(=O)[C@H](CCCCN)NC(=O)[C@H](Cc2c[nH]cn2)NC(=O)[C@H]([C@@H](C)O)NC(=O)[C@H](CCCNC(=N)N)NC(=O)[C@H](CO)NC3=O)NC(=O)[C@H](CCCCN)NC(=O)[C@H](CC(=O)O)NC(=O)[C@H](CC(N)=O)NC(=O)[C@H](CC(=O)O)NC(=O)[C@@H]2CCCN2C1=O [[DiMeO-F5;Phe6]GpTx-1(1-34)] (H-DCLG[Phe(3,4-(OMe)2)]FRKCIPDNDKCCRPNLVCSRTHKWCKYVF-NH2; disulfide 2-17, 9-23, 16-30) | > 10000 | 33
8 | CC[C@H](C)[C@@H]1NC(=O)[C@@H]2CSSC[C@@H]3NC(=O)[C@H](C(C)C)NC(=O)[C@H](CC(C)C)NC(=O)[C@H](CC(N)=O)NC(=O)[C@@H]4CCCN4C(=O)[C@H](CCCNC(=N)N)NC(=O)[C@H](CSSC[C@H](NC(=O)[C@@H](N)CC(=O)O)C(=O)N[C@@H](CC(C)C)C(=O)NCC(=O)N[C@@H](Cc4ccccc4)C(=O)N[C@@H](CCSC)C(=O)N[C@@H](CCCNC(=N)N)C(=O)N[C@@H](CCCCN)C(=O)N2)NC(=O)[C@H](CSSC[C@@H](C(=O)N[C@@H](CCCCN)C(=O)N[C@@H](Cc2ccc(O)cc2)C(=O)N[C@H](C(=O)N[C@@H](Cc2ccccc2)C(N)=O)C(C)C)NC(=O)[C@H](Cc2c[nH]c4ccccc24)NC(=O)[C@H](CCCCN)NC(=O)[C@H](Cc2c[nH]cn2)NC(=O)[C@H]([C@@H](C)O)NC(=O)[C@H](CCCNC(=N)N)NC(=O)[C@H](CO)NC3=O)NC(=O)[C@H](CCC(=O)O)NC(=O)[C@H](CC(=O)O)NC(=O)[C@H](CC(N)=O)NC(=O)[C@H](CC(=O)O)NC(=O)[C@@H]2CCCN2C1=O [[Glu15]GpTx-1(1-34)] (H-DCLGFMRKCIPDNDECCRPNLVCSRTHKWCKYVF-NH2; disulfide 2-17, 9-23, 16-30) | 10000 | 20
